Key:
[1] = test system: DRG neurons; assay: Axon elongation of cultured DRG neurons treated with inhibitor compounds; format: cell-based, mouse; conditions: for axon regrowth / axon regeneration in DRG neuron culture: one day after compound treatment, A-922500 500 nM, pradigastat 1 μM, PF combination 10 μM each; for axon elongation in dissociated primary DRG neuron culture: Atglistatin 10 μM, KLH-45 10 μM (figure legend), vs DMSO vehicle
Experimental: DRG primary culture and replating were performed as previously described. In brief, for primary culture, L4-L6 DRGs from 7-8 weeks wild-type mice of both genders were dissected and then digested in 0.5% collagenase for 1.5 h. After termination of digestion, DRGs were pipetted 20-30 times in a tube for complete dissociation. Neurobasal-A with B27 as a supplement was used as a medium for DRG culture. Virus was added at 1 day in vitro (DIV1) for genetic manipulation. […]
For replating DRG neuron culture, at DIV9-11 of primary DRG culture, cells were gently pipetted on culture dishes. Cells were flushed by 20-30 rounds of pipetting in each well of a 6-well plate. After all the cells were resuspended, they were replated onto a 24-well plate. Fixation and staining were performed 24 h after replating. Tuj1 staining was used to visualize axons and cell bodies of neurons. The lengths of the longest neurites from each DRG neuron were measured manually by NeuronJ in ImageJ. Average lengths of 10-20 neurites from 3 individual mice were used in each group.
In the final step of the glycerol phosphate pathway DGAT enzymes catalyze DGs into TGs. To assess the effect of blocking the DGAT enzyme, commercially available, DGAT1 inhibitors were used in culture. A-922500 (500 nM) and pradigastat (1 μM) were individually tested in a culture medium of DRG neurons. A combination of PF-06424439 (10 μM) and PF-046201101 (10 μM) was also tested in a culture medium of DRG neurons. […] Then, a KD experiment was performed by transfecting Dgat1 shRNA (shDgat1) targeting SEQ ID NO: 8, Dgat2 shRNA (shDgat2) targeting SEQ ID NO: 9 into DRG neurons. […] Because axotomy increases Lipin1 expression in RGCs, a study was conducted to determine whether DGAT enzymes were also regulated by axonal injury.

[2] = test system: DRG neurons; assay: Lipid droplet formation in cultured DRG neurons (BODIPY staining); format: cell-based, mouse; conditions: cultured adult DRG neurons, three days, vs DMSO vehicle
Experimental: DRG primary culture and replating were performed as previously described. In brief, for primary culture, L4-L6 DRGs from 7-8 weeks wild-type mice of both genders were dissected and then digested in 0.5% collagenase for 1.5 h. After termination of digestion, DRGs were pipetted 20-30 times in a tube for complete dissociation. Neurobasal-A with B27 as a supplement was used as a medium for DRG culture. Virus was added at 1 day in vitro (DIV1) for genetic manipulation. Atglistatin (10 μM), KLH-45 (1 μM), paradigastat (1 μM) or A-922500 (500 nM) treatment was used for ATGL, DDHD2 or DGAT1 inhibition.
For BODIPY staining on cultured DRG neurons, cells were first fixed in 4% PFA for 10 min and permeabilized with 0.1% Triton X-100 in 4% NGS. After cells were blocked, the Tuj1 antibody was applied in blocking buffer and incubated at 4° C. overnight. Coverslips were then washed three times with PBS and incubated with secondary antibodies at room temperature for 2 h. Cells were finally incubated with 200 nM BODIPY (Sigma) in blocking buffer for 30 min before mounting.
Experiments were performed to manipulate TG lipases in vitro. In cultured adult DRG neurons with vehicle treatment, lipid droplets were barely detected (FIG. 4B), consistent with the notion that neurons constantly turn over TGs with minimum storage. […] Then, the function of TG lipases was examined in axon regeneration in vivo. […]

[3] = test system: sensory axons in the sciatic nerve; assay: Sciatic nerve crush, sensory axon regeneration (SCG10 staining); format: in vivo, mouse; conditions: WT mice, i.p. KLH-45 30 mg/kg/day, Atglistatin 40 mg/kg/day, 5 days before and 2 days after injury; two days regrowth
Experimental: KLH-45 (30 mg/kg/day) or Atglistatin (40 mg/kg/day) were delivered by intraperitoneal injection for 5 consecutive days before injury and 2 days after injury. The same dosage of DMSO injection was used as a control treatment. Sciatic nerve injury was performed as previously described. Briefly, after an incision was made on the skin at the middle thigh level, muscle was gently dissected to expose the sciatic nerve. Then, the sciatic nerve was crushed for 10 s by forceps (Dumont #2; Fine Science Tools). For the sham group, the sciatic nerve was only exposed but not crushed.
Sciatic nerve sections with SCG10 staining were used to quantify the regeneration index. A column with a width of 50 pixels was drawn at different distances from the lesion center, and the average intensity of SCG10 staining was measured using ImageJ. The distance between the lesion center and the column with half the intensity of the lesion center was considered as the regeneration index.
Consistently, Ddhd2 KD in isolated DRG neurons suppressed axon elongation in culture, and as a positive control Lipin1 KD increased the axon length. Then, vehicle KLH-45, or KLH-45 combined with Atglistatin was systematically administered into WT mice. The sciatic nerve was then crushed, and the sensory axons were allowed to regrow for two days before examination. […]

[4] = test system: adult DRG neurons; assay: Axon elongation of replated adult DRG neurons after shRNA/AAV treatment (Tuj1 staining, longest neurite); format: cell-based, mouse; conditions: for effect on axon regrowth / axon growth of DRG neurons: shRNA in WT DRG neurons vs control shRNA
[5] = test system: cortical neurons; assay: Total TG and PC levels in cortical neurons by enzymatic hydrolysis assays; format: cell-based, mouse; conditions: lipid hydrolysis assay, DGAT1 or DGAT2 depletion
Experimental: (§1) Cortical neurons were cultured as previously described. In short, the cortex from E18 C57/B6 mice of both genders was dissected and digested in 0.5 mg/mL papain for 30 min. Then, 100 μL fetal bovine serum (HyClone) was added to inactivate papain. The cells were then placed into Neurobasal medium (Gibco), supplemented with B27 (Gibco) and 1% penicillin-streptomycin (10,000 U/mL; Gibco). AraC (100 nM; Sigma) was used to inhibit glial proliferation in DIV1-DIV3. After 10 days of culture with AAV-scramble, AAV-shLipin1, AAV-shDgat1 or AAV-shDgat2, cells were harvested, and then TG or PC levels were measured according to the manufacturer's protocol (ab65336 and ab83377).
Because UPLC-MS might not identify all lipid molecular species, the total TG and PC levels were further measured by performing enzymatic hydrolysis assays. TG levels were decreased by 40% after Lipin1 depletion (FIG. 3E). […] Because injury triggers Lipin1 elevation in RGCs, the data on lipid changes after Lipin1 KD indicate that axotomy may program lipid metabolism to increase triglyceride and decrease PL production. This injury-triggered bias in lipid synthesis may contribute to the declined axon growth in CNS neurons. By depleting Lipin1, injured neurons may redirect two arms of the branch and shift lipid storage to membrane lipid production for axon regrowth.

[6] = test system: cortical neurons; assay: Lipid profile of cultured cortical neurons by UPLC-MS; format: cell-based, mouse
Experimental: as §1
Lipid extraction was performed using the Folch method. Cortical neurons were lysed in a 2:1 chloroform:methanol mixture. After the upper phase was siphoned, the solvent was dried by line blowing with nitrogen. Lipid extracts were analyzed using a Synapt G2 HDMS mass spectrometer coupled with an ACQUITY UPLC system (Waters, Milford, USA). The UPLC separation was carried out using a Charge Surface Hybrid column (particle size: 1.7 μm; length: 100 mm; i.d.: 2.1 mm). The mobile phase consisted of solvent A (0.1% formic acid in water, v/v) and solvent B (0.1% formic acid in acetonitrile, v/v), each with 10 mM ammonium acetate. The elution gradient conditions were as follows: 0 min, 40% B; 2 min, 43% B; 2-2.1 min, 50% B; 12 min, 54% B; 12.1 min, 70% B; 12.1-18 min, 99% B. The flow rate was 0.2 mL min^−1, and the injection volume was 2 μL. A two minutes post-run time was set to fully equilibrate the column. Column temperature and sample chamber temperature were set to 55° C. and 6° C., respectively. […]
Because PAP activity is critical for Lipin1-dependent axon growth, it was hypothesized that Lipin1 may control axon regrowth by regulating glycerolipid synthesis in neurons. […] Glycerolipid levels were directly measured after eliminating glial cells by adding cytosine arabinoside (AraC) to the culture. […] Lipid extraction of cortical neurons was analyzed by ultra-performance liquid chromatography-mass spectrometry (UPLC-MS) system. […]

[7] = after Dgat1 KD, compared to the control shRNA group

O=C(Nc1ccccc1)Nc1ccc(-c2ccc(C(=O)[C@@H]3CCC[C@H]3C(=O)O)cc2)cc1 [A-922500]
axon regrowth / axon regeneration in DRG neuron culture [1]: demonstrated axon regrowth

CN(C)C(=O)Nc1cccc(-c2ccc(N(C)C)cc2)c1 [Atglistatin]
axon elongation in dissociated primary DRG neuron culture [1]: significantly inhibited axon elongation
TG storage in neurons (lipid droplet formation) [2]: dramatically increased TG storage

O=C(N(CCc1ccccc1)C1CCCCC1)n1ncc(-c2ccc(OC(F)(F)F)cc2)n1 [KLH-45]
axon elongation in dissociated primary DRG neuron culture [1]: significantly inhibited axon elongation
spontaneous sensory axon regeneration after sciatic nerve crush [3]: modestly inhibited
TG storage in neurons (lipid droplet formation) [2]: dramatically increased TG storage

O=C(O)C[C@H]1CC[C@H](c2ccc(-c3ccc(Nc4ccc(C(F)(F)F)nc4)cn3)cc2)CC1 [pradigastat]
axon regrowth / axon regeneration in DRG neuron culture [1]: demonstrated axon regrowth

Lipin1 shRNA: short hairpin RNA against Lipin1, plasmid transfected into DRG neurons (CGGAACTCTGTAGACAGAAT)
axon elongation enhanced by ([4]; shRNA plasmid transfected for three days, replated, fixed 24 h after replating, vs control shRNA): 20%

shDgat1: Dgat1 shRNA targeting SEQ ID NO: 8 (GCCCTTCAAGGATATGGACT; the letters are possibly those of the target site)
PC content [5]: increased
TG level in neurons [5]: decreased the TG level
identified TG species levels ([6]; after Dgat1 KD vs control shRNA): decreased
PC(29:1) increase [6, 7]: more than eightfold
PC(36:2) increase [6, 7]: more than eightfold
effect on axon regrowth / axon growth of DRG neurons [4]: significantly boosted axon growth

shDgat2: Dgat2 shRNA targeting SEQ ID NO: 9 (GCTACTTCCGAGACTACTTT; target site or template, no part of the molecule)
PC content [5]: increased
TG level in neurons [5]: decreased the TG level
effect on axon regrowth / axon growth of DRG neurons [4]: significantly boosted axon growth
